From patent US20030219467A1, “Method for the inhibition of methanogensis” (The Board of Regents of the University of Nebraska, priority 2001, published 2003)
Values after ≈ are worked out from the molar mass of the structure shown. Like-named read-outs stand apart in the source and are kept apart here.

Experiments:
ruminal organisms = assay: Ruminal fluid batch culture (artificial rumen): growth inhibition / methane formation; type: cell-based, steers
RFA-P synthase = biological target: T1, RFA-P synthase (Archaeoglobus fulgidus, UniProt O28190); assay: biochemical; type: biochemical
T1 sequence (O28190 1-313): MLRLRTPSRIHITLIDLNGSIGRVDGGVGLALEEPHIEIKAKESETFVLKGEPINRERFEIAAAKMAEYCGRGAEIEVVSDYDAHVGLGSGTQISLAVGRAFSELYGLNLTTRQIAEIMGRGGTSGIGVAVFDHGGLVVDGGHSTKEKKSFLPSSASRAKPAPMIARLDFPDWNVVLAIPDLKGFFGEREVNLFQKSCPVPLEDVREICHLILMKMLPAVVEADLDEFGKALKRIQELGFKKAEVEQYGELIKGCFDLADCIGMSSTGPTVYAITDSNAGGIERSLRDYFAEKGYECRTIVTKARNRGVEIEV

M. marburgensis [1] = assay: microbe, parasite or virus in culture; type: cell-based; details: for inhibition of growth of Methanothermobacter marburgensis (figure legend): FIG. 4: 1000 μM A2, 300 μM and 500 μM A4; for MIC: read-out: Inhibition of Growth M. marburgensis: concentration of compound which completely inhibited growth
Moorella thermoacetica = assay: Inhibition of growth of acetogen Moorella thermoacetica; type: cell-based; details: FIG. 5
M. marburgensis [2] = type: cell-based
[3] = inhibition constant, substrates at saturating concentrations, first tested at 1 mM, competitive inhibition fit, read-out: Ki
[4] = total methane over 48 hours, compound at (100), 600 micromoles without inhibitor
[5] = Methanothermobacter marburgensis, H2/CO2-grown, 65° C., OD 580 nm, words refer to 1 millimolar
[6] = Methanothermobacter marburgensis

O=C(O)c1ccc(NCCO)cc1 [4-(2-hydroxyethylamino)benzoate]
methane production, % of the control level (ruminal organisms; artificial rumen, 9 mM compound): 2.5%

CCNc1ccc(C(=O)O)cc1 [4-(ethylamino)benzoate]
methane production, % of the control level (ruminal organisms): 2.5%

CC(C)Nc1ccc(C(=O)O)cc1 [4-(isopropylamino)benzoic acid]
inhibition of RFA-P synthase (figure legend) (RFA-P synthase): inhibition of RFA-P synthase
inhibition of methanogen growth (figure legend) (M. marburgensis [1]; FIG. 7A: M. marburgensis, 15, 25, 75 and 90 micromoles of compound, OD 580 nm): inhibition of methanogen growth

O=C(O)c1ccc(NCc2ccccn2)cc1 [4-[(2-pyridylmethyl)amino]benzoic acid]
concentration that completely arrests growth of and methane formation by M. marburgensis (M. marburgensis [1]): 100 mM
reversal of inhibition by supplementing the medium with pABA (M. marburgensis [1]; M. marburgensis): fully reversed

NCc1ccc(B(O)O)cc1 [Compound A2]
Ki (RFA-P synthase; [3]): 140 µM
inhibition of growth of Moorella thermoacetica (figure legend) (Moorella thermoacetica): inability
inhibition of growth of Methanothermobacter marburgensis (figure legend) (M. marburgensis [1]): inhibit growth

CC(C)Nc1ccc(C(=O)O)cc1 [Compound A3]
Ki (RFA-P synthase; [3]): 9 µM
Methane Produced (M. marburgensis [2]; [4]): 0.01 μ moles
MIC (M. marburgensis [1]; [5]): 100 µM (≈ 17.9 µg/mL)

CC(C)CNc1ccc(C(=O)O)cc1 [Compound A4]
inhibition of RFA-P synthase (figure legend) (RFA-P synthase): inhibit RFA-P synthase
Ki (RFA-P synthase; [3]): 10 µM
Methane Produced (M. marburgensis [2]; total methane over 48 hours, compound at (500), 600 micromoles without inhibitor): 0.02 μ moles
inhibition of growth of Moorella thermoacetica (figure legend) (Moorella thermoacetica): inability
inhibition of growth of Methanothermobacter marburgensis (figure legend) (M. marburgensis [1]): inhibit growth
MIC (M. marburgensis [1]; [5]): 500 µM (≈ 96.6 µg/mL)

O=C(O)c1ccc(NCCO)cc1 [Compound A5]
Ki (RFA-P synthase; [3]): 17 µM
MIC (M. marburgensis [1]; [5]): 300 µM (≈ 54.4 µg/mL)

O=C(O)c1ccc(NCc2ccco2)cc1 [Compound A6]
Ki (RFA-P synthase; [3]): 7.5 µM
MIC (M. marburgensis [1]; [5]): 300 µM (≈ 65.2 µg/mL)

NCc1ccc(C(=O)O)cc1 [Compound A7, 4-(aminomethyl)benzoic acid]
inhibition of RFA-P synthase (figure legend) (RFA-P synthase): inhibit RFA-P synthase
Ki (RFA-P synthase; [3]): 75 µM
Methane Produced (M. marburgensis [2]): 0.07 μ moles

Nc1ccc(CC(=O)O)cc1 [Compound A9, (4-aminophenyl)acetic acid]
Ki (RFA-P synthase; [3]): 60 µM
MIC (M. marburgensis [1]; [6]): 1000 µM (≈ 151 µg/mL)

CCOC(=O)c1ccc(NC(C)C)cc1 [Compound A11]
Ki (RFA-P synthase; [3]): 130 µM
MIC (M. marburgensis [1]; [5]): 1000 µM (≈ 207 µg/mL)

Nc1ccc(S(=O)(=O)O)cc1 [Compound A12]
Ki (RFA-P synthase; [3]): 7 µM

CC(C)OP(=O)(O)c1ccc(N)cc1 [Compound A13]
Ki (RFA-P synthase): 15 µM
MIC (M. marburgensis [1]; [6]): 1000 µM (≈ 215 µg/mL)

CCCCOP(=O)(O)c1ccc(N)cc1 [Compound A14]
Ki (RFA-P synthase): 25 µM

OCc1ccc(B(O)O)cc1 [Compound A15]
Ki (RFA-P synthase; [3]): 9 µM
MIC (M. marburgensis [1]; [6]): 100 µM (≈ 15.2 µg/mL)

Cc1cc(C(=O)O)ccc1NC(C)C [Compound A16]
Ki (RFA-P synthase; [3]): 23 µM
MIC (M. marburgensis [1]; [5]): 300 µM (≈ 58 µg/mL)

CCNc1ccc(C(=O)O)cc1 [Compound A19]
Ki (RFA-P synthase): 155 µM
MIC (M. marburgensis [1]; [6]): 300 µM (≈ 49.6 µg/mL)

CCCNc1ccc(C(=O)O)cc1 [Compound A20]
inhibition of RFA-P synthase (figure legend) (RFA-P synthase): inhibit RFA-P synthase
Ki (RFA-P synthase; [3]): 20 µM
Methane Produced (M. marburgensis [2]; total methane over 48 hours, compound at (600), 600 micromoles without inhibitor): 0.05 μ moles
MIC (M. marburgensis [1]; [5]): 600 µM (≈ 108 µg/mL)

CCCCCCNc1ccc(C(=O)O)cc1 [Compound A21]
MIC (M. marburgensis [1]; [5]): 500 µM (≈ 111 µg/mL)

CC(Nc1ccc(C(=O)O)cc1)C(F)(F)F (centres unmarked) [Compound A22]
Ki (RFA-P synthase; [3]): 59 µM

CC(C)CCNc1ccc(C(=O)O)cc1 [Compound A24]
MIC (M. marburgensis [1]; [5]): 1000 µM (≈ 207 µg/mL)

O=C(O)c1ccc(NC2CCCC2)cc1 [Compound A25]
MIC (M. marburgensis [1]; [5]): 1000 µM (≈ 205 µg/mL)

O=C(O)c1ccc(NCc2ccoc2)cc1 [Compound A26]
Ki (RFA-P synthase; [3]): 84 µM
Methane Produced (M. marburgensis [2]; [4]): 0.06 μ moles
MIC (M. marburgensis [1]; [5]): 100 µM (≈ 21.7 µg/mL)

O=C(O)c1ccc(NCc2cccs2)cc1 [Compound A27]
Ki (RFA-P synthase; [3]): 72 µM

O=C(O)c1ccc(NCc2ccsc2)cc1 [Compound A28]
Ki (RFA-P synthase; [3]): 55 µM
MIC (M. marburgensis [1]; [5]): 1000 µM (≈ 233 µg/mL)

O=C(O)c1ccc(NCc2ccccc2)cc1 [Compound A29]
Ki (RFA-P synthase; [3]): 51 µM
MIC (M. marburgensis [1]; [5]): 500 µM (≈ 114 µg/mL)

O=C(O)c1ccc(NCc2c(F)c(F)c(F)c(F)c2F)cc1 [Compound A30]
MIC (M. marburgensis [1]; [5]): 500 µM (≈ 159 µg/mL)

O=C(O)c1ccc(NCc2ccccc2O)cc1 [Compound A31]
Ki (RFA-P synthase; [3]): 705 µM
MIC (M. marburgensis [1]; [5]): 1000 µM (≈ 243 µg/mL)

O=C(O)c1ccc(NCc2ccc(O)cc2)cc1 [Compound A32]
MIC (M. marburgensis [1]; [5]): 300 µM (≈ 73 µg/mL)

O=C(O)c1ccc(NCc2ccccn2)cc1 [Compound A33]
Ki (RFA-P synthase; [3]): 19 µM
Methane Produced (M. marburgensis [2]; total methane over 48 hours, compound at (0.1), 600 micromoles without inhibitor): 0.08 μ moles
MIC (M. marburgensis [1]; [5]): 0.1 µM (≈ 0.0228 µg/mL)

Cc1cccc(CNc2ccc(C(=O)O)cc2)n1 [Compound A34]
Ki (RFA-P synthase; [3]): 19 µM

O=C(O)c1ccc(NCc2ccc3ccccc3n2)cc1 [Compound A35]
MIC (M. marburgensis [1]; [5]): 1000 µM (≈ 278 µg/mL)

O=C(O)c1ccc(NCc2ccncc2)cc1 [Compound A36]
MIC (M. marburgensis [1]; [5]): 1000 µM (≈ 228 µg/mL)

Nc1ccc(C(=O)O)cc1O [Compound A38]
MIC (M. marburgensis [1]; [5]): 500 µM (≈ 76.6 µg/mL)

Nc1cc(C(=O)O)ccn1 [Compound A39]
MIC (M. marburgensis [1]; [5]): 1000 µM (≈ 138 µg/mL)

O=C(O)c1ccc(CO)cc1 [Compound A40]
Ki (RFA-P synthase; [3]): 270 µM

CCC(C(=O)O)c1ccc(N)cc1 (centres unmarked) [Compound A41]
MIC (M. marburgensis [1]; [5]): 500 µM (≈ 89.6 µg/mL)

O=C(O)Cc1ccc(NCc2ccco2)cc1 [Compound A42]
MIC (M. marburgensis [1]; [5]): 1000 µM (≈ 231 µg/mL)

Nc1cccc(CC(=O)O)c1 [Compound A43]
MIC (M. marburgensis [1]; [5]): 500 µM (≈ 75.6 µg/mL)

O=C(O)Cc1ccc(O)cc1 [Compound A44]
Ki (RFA-P synthase): 115 µM

Cc1cc(S(=O)(=O)O)ccc1N [Compound A45]
MIC (M. marburgensis [1]; [6]): 500 µM (≈ 93.6 µg/mL)

CCOP(=O)(OCC)c1ccc(NCC(C)C)cc1 [Compound A47]
MIC (M. marburgensis [1]): 500 µM (≈ 143 µg/mL)

CCOP(=O)(O)c1ccc(N)cc1 [Compound A48]
Ki (RFA-P synthase): 65 µM

Nc1ccc(P(=O)(O)O)cc1 [Compound A49]
Ki (RFA-P synthase): 85 µM

CC(C)Nc1ccc(P(=O)(O)OC(C)C)cc1 [Compound A50]
MIC (M. marburgensis [1]; [6]): 100 µM (≈ 25.7 µg/mL)

CC(C)OP(=O)(O)c1ccc(NCc2ccco2)cc1 [Compound A51]
MIC (M. marburgensis [1]; [6]): 100 µM (≈ 29.5 µg/mL)

CC(C)OP(=O)(O)c1ccc(NCc2cccnc2)cc1 [Compound A52]
MIC (M. marburgensis [1]; [6]): 1000 µM (≈ 306 µg/mL)

CCCCOP(=O)(O)c1ccc(NC(C)C)cc1 [Compound A53]
Ki (RFA-P synthase): 25 µM
MIC (M. marburgensis [1]; [6]): 300 µM (≈ 81.4 µg/mL)

CCCCOP(=O)(O)c1ccc(NCc2ccccn2)cc1 [Compound A55]
Ki (RFA-P synthase): 25 µM
MIC (M. marburgensis [1]; [6]): 100 µM (≈ 32 µg/mL)

CNc1ccc(C(=O)O)cc1 [Compound A56]
Ki (RFA-P synthase; [3]): 145 µM

CCCCNc1ccc(C(=O)O)cc1 [Compound A58]
MIC (M. marburgensis [1]; [6]): 1000 µM (≈ 193 µg/mL)

CCCOC(=O)c1ccc(NC(C)C)cc1 [Compound A65]
Ki (RFA-P synthase; [3]): 130 µM

CCCCOC(=O)c1ccc(NC(C)C)cc1 [Compound A66]
Ki (RFA-P synthase; [3]): 190 µM
MIC (M. marburgensis [1]; [5]): 1000 µM (≈ 235 µg/mL)

OB(O)c1ccncc1 [Compound A74]
Ki (RFA-P synthase; [3]): 200 µM

Nc1ccc(/C=C/C(=O)O)cc1 [Compound A80]
MIC (M. marburgensis [1]; [5]): 500 µM (≈ 81.6 µg/mL)

O=C(O)[C@H]1CC[C@@H](NCc2ccco2)CC1 [Compound B1]
Ki (RFA-P synthase; [3]): 63 µM
MIC (M. marburgensis [1]; [5]): 0.1 µM (≈ 0.0223 µg/mL)

O=C(O)[C@H]1CC[C@H](NCc2ccco2)CC1 [Compound B2]
MIC (M. marburgensis [1]; [5]): 500 µM (≈ 112 µg/mL)

CC(C)CN[C@H]1CC[C@@H](C(=O)O)CC1 [Compound B3]
Ki (RFA-P synthase; [3]): 44 µM

N[C@H]1CC[C@H](C(=O)O)CC1 [Compound B7]
MIC (M. marburgensis [1]; [5]): 500 µM (≈ 71.6 µg/mL)

O=P(O)(O)OC[C@H]1N[C@@H](c2ccccc2)[C@H](O)[C@@H]1O [Compound C1]
Ki (RFA-P synthase; [3]): 30 µM
MIC (M. marburgensis [1]; [5]): 500 µM (≈ 145 µg/mL)

OCc1ccc([C@@H]2N[C@H](CO)[C@@H](O)[C@H]2O)cc1 [Compound C4]
MIC (M. marburgensis [1]; [5]): 1000 µM (≈ 239 µg/mL)

O=C(O)c1c[nH]cn1 [Compound D3]
MIC (M. marburgensis [1]; [6]): 1000 µM (≈ 112 µg/mL)

Nc1nc(CC(=O)O)cs1 [Compound D6]
MIC (M. marburgensis [1]; [5]): 500 µM (≈ 79.1 µg/mL)

Nc1n[nH]c(C(=O)O)n1 [Compound D7]
MIC (M. marburgensis [1]; [5]): 1000 µM (≈ 128 µg/mL)
